Patent US20220145316A1, “CANCER IMMUNOTHERAPY” (priority 2019, published 2022)
pIC50: −log10 of the molar value. *1 amine or outer side, *2 acyl side, *3 side chain or, on linkers, in order; H or OH if unused. Where a SMILES comes first, the peptide text is derived from it. [ ]: non-standard residue; d: D form. The star is where a group is joined. Dolaproine = CO[C@@H]([C@@H]1CCCN1)[C@@H](C)C(=O)O; Hexanoyl(6-maleimido) = O=C1C=CC(=O)N1CCCCCC(=O)*; Dil = CC[C@H](C)[C@H](NC)[C@@H](CC(=O)O)OC; PABC = O=C(OCc1ccc(N[*:1])cc1)[*:2]; X1 = C[C@@H](N*)[C@@H](O)c1ccccc1; Cit = NC(=O)NCCC[C@H](N)C(=O)O; NMeV = CN[C@H](C(=O)O)C(C)C

Key:
[1] = tested on: Raji cells; conditions: read-out: IC50 (cytotoxicity), 72 hours
Protocol: (§1) Cell viability and proliferation in cell lines were estimated using a resazurin based assay (Prestoblue, Thermo Scientific). Cell viability in healthy B cells was measured using 7-AAD (Cayman Chemical Company, Ann Harbor, Mich.) cell exclusion using flow cytometric analysis gated on the B cell fraction (CD19-PE, BD Biosciences, Franklin Lakes, N.J.).

[2] = tested on: Daudi cells; conditions: read-out: IC50 (cytotoxicity), 72 hours
Protocol: as §1

[3] = tested on: normal donor B cells; conditions: normal B cells from healthy human donor, 72 hours
Protocol: as §1

[4] = tested on: Raji-luc B lymphoma cells; assay: Drug delivery study in Raji B cell lymphoma model (survival, bioluminescence, kidney histology); assay type: in vivo, NSG mice
Protocol: Drug delivery study and histology: NSG male mice (7 weeks) were inoculated with 1×10^6 Raji-luc cells intravenously. […] For the first study, dosing started on day 3 and drugs/drug delivery system were injected i.p. every 4 days for a total of 6 injections. For the second study, dosing started on day 11 and drugs/drug delivery system were injected i.p. every 4 days for a total of 3 injections. For both studies, weekly bioluminescence imaging using the IVIS Spectrum was used to monitor lymphoma progression. […] Tissues were harvested for histology using H&E staining to show tumor burden or lack thereof.
Male NSG mice were injected intravenously with luciferase expressing Raji cells and monitored for lymphoma engraftment and progression using bioluminescence imaging. Tumor engrafted mice were randomly assigned to the treatment groups (n=5).
The MMAE dose was selected based on the fact that the known maximum tolerated dose (MTD) of free MMAE is 0.25-0.5 mg kg^−1 after a single administration. A dose of 0.125 mg/kg was chosen to allow for multiple treatments. Mice injected intravenously with Raji cells develop hind leg paralysis (due to the infiltration of neoplastic cells into the spinal canal) and/or lose weight prior to death. Therefore, hind leg paralysis or >15% loss in body weight were considered experimental endpoints at which mice were euthanized.

[5] = after a single administration; cited from earlier work

Row | Compound | pIC50 [1] | pIC50 [2] | cytotoxicity towards non-dividing normal donor B cells [3] | histological analysis of kidney sections, lymphoma cell infiltration ([4]; H&E, PVX and MMAE mice when moribund, PVX-vcMMAE mice at end of study period) | lymphoma progression by bioluminescence imaging ([4]; first study: 6 i.p. injections every 4 days from day 3) | median survival ([4]; first study: 6 i.p. injections every 4 days from day 3, MMAE 0.125 mg/kg, PVX-vcMMAE 0.4 mg/kg, PVX 1 mg, PBS 45 days) [days] | median survival ([4]; second study: 3 i.p. injections every 4 days from day 11, PBS 42 days) [days] | maximum tolerated dose (MTD) [5] [mg/kg]
1 | CC[C@H](C)[C@@H]([C@@H](CC(=O)N1CCC[C@H]1[C@H](OC)[C@@H](C)C(=O)N[C@H](C)[C@@H](O)c1ccccc1)OC)N(C)C(=O)[C@@H](NC(=O)[C@H](C(C)C)N(C)C(=O)OCc1ccc(NC(=O)[C@H](CCCNC(N)=O)NC(=O)[C@@H](NC(=O)CCCCCN2C(=O)C=CC2=O)C(C)C)cc1)C(C)C [vcMMAE] ({Hexanoyl(6-maleimido)}-V[Cit][PABC][NMeV]V[Dil][Dolaproine]-X1) | 6.80 | 7.10 | no cytotoxicity |  |  |  |  | 
2 | CC[C@H](C)[C@@H]([C@@H](CC(=O)N1CCC[C@H]1[C@H](OC)[C@@H](C)C(=O)N[C@H](C)[C@@H](O)c1ccccc1)OC)N(C)C(=O)[C@@H](NC(=O)[C@@H](NC)C(C)C)C(C)C [MMAE, (S)-N-((3R,4S,5S)-1-((S)-2-((1R,2R)-3-(((1S,2R)-1-hydroxy-1-phenylpropan-2-yl)amino)-1-methoxy-2-methyl-3-oxopropyl)pyrrolidin-1-yl)-3-methoxy-5-methyl-1-oxoheptan-4-yl)-N,3-dimethyl-2-((S)-3-methyl-2-(methylamino)butanamido)butanamide] (H-[NMeV]V[Dil][Dolaproine]-X1) |  |  |  | reduced lymphoma cell infiltration | partially limited lymphoma progression | 61 | 39 | 0.25 to 0.5
